These results are taken from patent US11524944B2, “2-phenylpyrimidine-4-carboxamides as AHR inhibitors” (Bayer Aktiengesellschaft, priority 2017, dated 2022).

What is called IC50 is the midpoint of a concentration-inhibition curve.

One test concerns the target T1, Mouse AhR (Mus musculus, UniProt P30561).
T1 sequence (P30561 1-848 P471L/N533S/M589L): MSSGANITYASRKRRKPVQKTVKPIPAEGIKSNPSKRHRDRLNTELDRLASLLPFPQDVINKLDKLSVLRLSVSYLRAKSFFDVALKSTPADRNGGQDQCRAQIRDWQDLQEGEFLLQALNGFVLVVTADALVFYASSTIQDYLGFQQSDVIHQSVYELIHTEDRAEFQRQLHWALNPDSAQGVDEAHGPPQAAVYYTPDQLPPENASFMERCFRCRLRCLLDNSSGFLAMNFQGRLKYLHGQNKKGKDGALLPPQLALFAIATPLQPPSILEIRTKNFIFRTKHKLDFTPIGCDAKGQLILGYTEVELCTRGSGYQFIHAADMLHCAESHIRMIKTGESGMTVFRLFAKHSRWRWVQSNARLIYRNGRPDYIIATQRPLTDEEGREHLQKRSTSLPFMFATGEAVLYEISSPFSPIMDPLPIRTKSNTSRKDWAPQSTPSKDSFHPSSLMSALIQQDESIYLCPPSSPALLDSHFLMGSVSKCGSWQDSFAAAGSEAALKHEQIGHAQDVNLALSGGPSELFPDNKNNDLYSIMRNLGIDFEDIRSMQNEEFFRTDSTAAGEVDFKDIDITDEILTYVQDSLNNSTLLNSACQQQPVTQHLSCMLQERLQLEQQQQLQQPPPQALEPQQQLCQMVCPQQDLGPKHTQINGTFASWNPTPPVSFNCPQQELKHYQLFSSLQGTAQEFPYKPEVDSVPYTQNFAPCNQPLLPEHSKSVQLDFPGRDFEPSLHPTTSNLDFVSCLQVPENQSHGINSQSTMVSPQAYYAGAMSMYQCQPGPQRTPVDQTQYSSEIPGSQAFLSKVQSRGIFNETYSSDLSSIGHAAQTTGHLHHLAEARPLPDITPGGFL
The experiment in a line: Transactivation assay in mouse cell line (in vitro assay 2): antagonism. The note with it: Hepa 1c1c7 cells, AHR inducible firefly luciferase reporter (DRE), 200 μM kynurenic acid, 20 hours. The class given is cell-based. On the procedure:
(§1) Examples were tested in selected biological assays one or more times. When tested more than once, data are reported as either average values or as median values, wherein • the average value, also referred to as the arithmetic mean value, represents the sum of the values obtained divided by the number of times tested, and • the median value represents the middle number of the group of values when ranked in ascending or descending order. If the number of values in the data set is odd, the median is the middle value. If the number of values in the data set is even, the median is the arithmetic mean of the two middle values.
Transactivation Assay in Mouse Cell Line (In Vitro Assay 2)
Transactivation assay was carried out in Hepa 1c1c7 cells (ATCC #CRL-2026) endogenously expressing AHR. In addition the cells were stably transfected with an AHR inducible firefly luciferase reporter gene construct that carried AHR-binding sites (DRE) in its promoter. Kynurenic acid is an endogenous AHR activating ligand and was used to prestimulate test cells prior to testing the antagonistic properties of compounds.
In Vitro Assay 2: Antagonism in Mouse Cell Line
Firefly luciferase activity was determined by the SteadyGlo Luciferase Assay System (Promega, #E2550).
A general note: Reporter assays use an easily measured gene product as a stand-in for the process of interest.

The target of the next test is T2, Human AhR (Homo sapiens, UniProt P35869).
T2 construct: host or cells: U87 glioblastoma cells, stably transfected with a DRE firefly luciferase reporter and a constitutive renilla reporter
T2 sequence (P35869 11-848): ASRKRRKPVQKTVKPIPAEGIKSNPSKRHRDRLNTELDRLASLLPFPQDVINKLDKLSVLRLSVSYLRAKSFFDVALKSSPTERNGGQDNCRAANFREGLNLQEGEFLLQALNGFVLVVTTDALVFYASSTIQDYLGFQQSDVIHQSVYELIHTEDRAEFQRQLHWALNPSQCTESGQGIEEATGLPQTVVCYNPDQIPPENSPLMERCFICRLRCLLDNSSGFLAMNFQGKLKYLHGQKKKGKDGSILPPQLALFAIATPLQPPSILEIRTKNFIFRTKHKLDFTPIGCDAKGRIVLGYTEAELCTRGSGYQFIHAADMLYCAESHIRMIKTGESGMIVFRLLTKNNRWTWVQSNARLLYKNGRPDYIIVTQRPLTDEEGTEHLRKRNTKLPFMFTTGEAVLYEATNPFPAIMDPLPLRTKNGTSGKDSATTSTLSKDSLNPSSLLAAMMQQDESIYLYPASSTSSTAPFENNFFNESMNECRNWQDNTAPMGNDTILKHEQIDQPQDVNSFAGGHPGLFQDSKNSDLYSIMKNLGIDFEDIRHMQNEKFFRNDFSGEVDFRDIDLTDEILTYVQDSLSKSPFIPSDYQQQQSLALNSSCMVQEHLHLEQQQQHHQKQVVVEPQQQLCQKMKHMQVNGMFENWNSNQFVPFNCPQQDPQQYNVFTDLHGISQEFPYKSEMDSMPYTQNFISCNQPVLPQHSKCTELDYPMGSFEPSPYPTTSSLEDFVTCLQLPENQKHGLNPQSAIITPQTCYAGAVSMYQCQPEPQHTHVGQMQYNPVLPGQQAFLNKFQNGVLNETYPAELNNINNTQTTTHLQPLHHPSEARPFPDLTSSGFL
The experiment in a line: Transactivation assay in human cell line (in vitro assay 1): antagonism. The class given is cell-based. The following applies: U87 glioblastoma cells, AHR inducible firefly luciferase reporter (DRE), 150 μM kynurenic acid, 20 hours. On the procedure:
as §1
Transactivation Assay in Human Cell Line (In Vitro Assay 1)
Transactivation assay was carried out in U87 glioblastoma cells (ATCC) endogenously expressing AHR. In addition the cells were stably transfected with an AHR inducible firefly luciferase reporter gene construct that carried AHR-binding sites (DRE) in its promoter and a renilla reporter gene construct with constitutively active promoter. Kynurenic acid is an endogenous AHR activating ligand and was used to prestimulate test cells prior to testing the antagonistic properties of compounds.
In Vitro Assay 1: Antagonism in Human Cell Line
Firefly luciferase and Renilla activity was determined by the DualGlo Luciferase Assay System (Promega, #2920). Renilla activity was used to assess toxic effects of compounds.

Where “and” joins values, the source holds several entries; their conditions need not be identical. Equal values may be shown once.

`C[C@H](CO)NC(=O)c1cc(-c2ccc(Cl)cc2)nc(-c2cccc(F)c2)n1` [Example 2, 6-(4-Chlorophenyl)-2-(3-fluorophenyl)-N-[(2R)-1-hydroxypropan-2-yl]pyrimidine-4-carboxamide]: the figures for the IC50 against Mouse AhR and at Human AhR were 0.0133 µM and 0.00588 µM, respectively.

In the case of `C[C@@H](CO)NC(=O)c1cc(-c2ccc(Cl)cc2)nc(-c2ccc(Cl)cc2)n1` [Example 3, 2,6-Bis(4-chlorophenyl)-N-[(2S)-1-hydroxypropan-2-yl]pyrimidine-4-carboxamide], the half-inhibitory concentration (IC50) on Mouse AhR stood at 0.532 µM; against Human AhR, 0.64 µM.

On to `C[C@@H](CO)NC(=O)c1cc(-c2ccc(Cl)cc2)nc(-c2cccc(F)c2)n1` [Example 4, 6-(4-Chlorophenyl)-2-(3-fluorophenyl)-N-[(2S)-1-hydroxypropan-2-yl]pyrimidine-4-carboxamide], for which the IC50 was 0.00338 µM at Mouse AhR and 0.00169 µM against Human AhR.

On to `C[C@@H](CO)NC(=O)c1cc(-c2ccc(OC(F)(F)F)cc2)nc(-c2cccc(F)c2)n1` [Example 5, 2-(3-Fluorophenyl)-N-[(2S)-1-hydroxypropan-2-yl]-6-[4-(trifluoromethoxy)phenyl]pyrimidine-4-carboxamide], for which the IC50 was found to be 0.00128 µM against Mouse AhR and 0.00127 µM on Human AhR.

For `C[C@H](CO)NC(=O)c1cc(-c2ccc(OC(F)(F)F)cc2)nc(-c2cccc(F)c2)n1` [Example 6, 2-(3-Fluorophenyl)-N-[(2R)-1-hydroxypropan-2-yl]-6-[4-(trifluoromethoxy)phenyl]pyrimidine-4-carboxamide], the values for the IC50 at Mouse AhR and at Human AhR were 0.0178 µM and 0.0122 µM, respectively.

On to `CC(C)(O)CNC(=O)c1cc(-c2ccc(OC(F)(F)F)cc2)nc(-c2cccc(F)c2)n1` [Example 7, 2-(3-Fluorophenyl)-N-(2-hydroxy-2-methylpropyl)-6-[4-(trifluoromethoxy)phenyl]pyrimidine-4-carboxamide], for which the IC50 on Mouse AhR and against Human AhR was above 20 µM each time.

For the compound `CC(C)(O)CNC(=O)c1cc(-c2ccc(C(F)(F)F)cc2)nc(-c2cccc(F)c2)n1` [Example 8, 2-(3-Fluorophenyl)-N-(2-hydroxy-2-methylpropyl)-6-[4-(trifluoromethyl)phenyl]pyrimidine-4-carboxamide], the IC50 against Mouse AhR and against Human AhR was above 20 µM throughout.

Consider `C[C@@H](CO)NC(=O)c1cc(-c2cccc(F)c2)nc(-c2ccc(C(F)(F)F)cc2)n1` [Example 9, 6-(3-Fluorophenyl)-N-[(2S)-1-hydroxypropan-2-yl]-2-[4-(trifluoromethyl)phenyl]pyrimidine-4-carboxamide], for which the half-maximal inhibitory concentration (IC50) came out at 0.00864 µM on Mouse AhR and 0.0153 µM against Human AhR.

For the compound `C[C@@H](CO)NC(=O)c1cc(-c2cccc(F)c2)nc(-c2ccc(Cl)cc2)n1` [Example 10, 2-(4-Chlorophenyl)-6-(3-fluorophenyl)-N-[(2S)-1-hydroxypropan-2-yl]pyrimidine-4-carboxamide], the results for the IC50 at Mouse AhR and on Human AhR were 0.0238 µM and 0.0353 µM, respectively.

For `C[C@@H](CO)NC(=O)c1cc(-c2cccc(F)c2)nc(-c2ccc(OC(F)(F)F)cc2)n1` [Example 11, 6-(3-Fluorophenyl)-N-[(2S)-1-hydroxypropan-2-yl]-2-[4-(trifluoromethoxy)phenyl]pyrimidine-4-carboxamide], the IC50 came to 0.0115 µM at Mouse AhR and 0.0411 µM at Human AhR.

For the compound `C[C@@H](CO)NC(=O)c1cc(-c2ccc(OC(F)(F)F)cc2)nc(-c2ccc(OC(F)(F)F)cc2)n1` [Example 12, N-[(2S)-1-hydroxypropan-2-yl]-2,6-bis[4-(trifluoromethoxy)phenyl]pyrimidine-4-carboxamide], the IC50 at Mouse AhR was > 20 µM and 17.9 µM; against Human AhR, above 20 µM.

Turning to `CC(C)(O)CNC(=O)c1cc(-c2ccc(OC(F)(F)F)cc2)nc(-c2ccc(Cl)cc2)n1` [Example 14, 2-(4-chlorophenyl)-N-(2-hydroxy-2-methylpropyl)-6-[4-(trifluoromethoxy)phenyl]pyrimidine-4-carboxamide], the IC50 turned out to be 0.148 µM against Mouse AhR and 0.234 µM on Human AhR.

`COc1ccc(-c2nc(C(=O)NCC(C)(C)O)cc(-c3ccc(OC(F)(F)F)cc3)n2)cc1` [Example 15, N-(2-hydroxy-2-methylpropyl)-2-(4-methoxyphenyl)-6-[4-(trifluoromethoxy)phenyl]pyrimidine-4-carboxamide]: the values for the IC50 against Mouse AhR and against Human AhR were above 20 µM and 0.39 µM, respectively.

Turning to `CC(C)(O)CNC(=O)c1cc(-c2ccc(OC(F)(F)F)cc2)nc(-c2cccc(C#N)c2)n1` [Example 20, 2-(3-cyanophenyl)-N-(2-hydroxy-2-methylpropyl)-6-[4-(trifluoromethoxy)phenyl]pyrimidine-4-carboxamide], the IC50 against Mouse AhR amounted to 0.125 µM; against Human AhR, 0.0114 µM.

With `C[C@@H](CO)NC(=O)c1cc(-c2ccc(OC(F)(F)F)cc2)nc(-c2ccc(F)cc2)n1` [Example 28, 2-(4-fluorophenyl)-N-[(2S)-1-hydroxypropan-2-yl]-6-[4-(trifluoromethoxy)phenyl]pyrimidine-4-carboxamide], the IC50 at Mouse AhR turned out to be 0.108 µM; against Human AhR it was 0.22 µM.

With `C[C@@H](CO)NC(=O)c1cc(-c2ccc(OC(F)(F)F)cc2)nc(-c2ccc(Cl)cc2)n1` [Example 29, 2-(4-chlorophenyl)-N-[(2S)-1-hydroxypropan-2-yl]-6-[4-(trifluoromethoxy)phenyl]pyrimidine-4-carboxamide], the IC50 at Mouse AhR was found to be 0.697 µM; on Human AhR, 0.525 µM.

Take `Cc1cccc(-c2nc(C(=O)N[C@@H](C)CO)cc(-c3ccc(OC(F)(F)F)cc3)n2)c1` [Example 31, N-[(2S)-1-hydroxypropan-2-yl]-2-(3-methylphenyl)-6-[4-(trifluoromethoxy)phenyl]pyrimidine-4-carboxamide]: the concentration for half-maximal inhibition (IC50) against Mouse AhR came out at 0.0469 µM; against Human AhR, 0.0264 µM.

`Cc1cc(-c2nc(C(=O)N[C@@H](C)CO)cc(-c3ccc(OC(F)(F)F)cc3)n2)ccc1F` [Example 32, 2-(4-fluoro-3-methylphenyl)-N-[(2S)-1-hydroxypropan-2-yl]-6-[4-(trifluoromethoxy)phenyl]pyrimidine-4-carboxamide]: the results for the IC50 against Mouse AhR and against Human AhR were 0.384 µM and 0.167 µM, respectively.
